Experimental data from patent publication US20170216329A1, “Ceramide-Rubusoside Nanomicelles and Their Use in Cancer Therapy” (Board of Supervisors of Louisiana State University and …, priority 2014, published 2017).

Legend:
[1] = system: protein phosphatase 1 (PP1); assay: PP1 activity in NCI/ADR-RES cells; assay type: cell-based, human
Method: Cer can modulate gene expression, not only by activating transcription, but also by determining protein isoform. […] We assessed the roles of protein phosphatase 1 (PP1) and serine/arginine-rich splicing-factor 1 SRSF1 in Cer-induced wt p53 restoration via PP1 and SRSF1 in NCI/ADR-RES human ovarian cancer cells. […] Cells were pretreated with CalA (5 nM) for 4 hr, and then with either MBO-asGCS (MBO-as, 100 nM) or C6-Cer (2.5 μM) for 72 hr. FIG. 2 depicts PP1 activity in NCI/ADR-RES cells with various treatments. […] These increases were correlated with increases in wt p53 mRNA (exon 5) and pp53 (as assessed by RT-PCR amplification, data not shown).

[2] = system: A2780 ovarian cancer cells (p53 wild-type); assay: Cell viability after 72 hours, A2780; assay type: cell-based
[3] = system: p53, Bax and p21 in the small intestine; assay: p53 restoration in heterozygous p53R172H/+ transgenic mice (small intestine); assay type: in vivo; details: 1 mg/kg, i.p., every 3 days for 6 days; vs. saline
Text: We examined the effects of Cer on restoring wt p53 expression in p53 missense transgenic mice. The experimental animals were heterozygous 129S4-Trp53^tm2.1Tyj transgenic mice, which carry the mutation p53^R172H/+, and have a genetic predisposition to cancer. (Doyle et al., 2010; Olive et al., 2004; Yu et al., 2012) These mice were generously provided by the NCI Mouse Repository (Rockville, Md.). We analyzed the genotypes of offspring by PCR analysis of DNA from blood collected from the tail vein. Heterozygous (HTZ) p53^R172H/+ mice were treated with C6-Cer or C6-Cer-RUB (1 mg/kg, i.p., every 3 days for 6 days).

[4] = system: wt p53 (phosphorylated-Ser15); details: cited from earlier work
[5] = system: OVCAR3 ovarian cancer cells (p53 R248 missense mutation); assay: Cell viability after 72 hours, OVCAR3; assay type: cell-based, Human
Method: We examined the effect of Ceramide-RUB nanomicelles on p53 restoration in cancer cell models. Human OVCAR3 ovarian cancer cells carry a p53 R248 missense mutation, and are resistant to many anticancer drugs. […] FIG. 3 depicts cell viability (as a percentage of control) after treatment for 72 hours with varying concentrations of C6-Ceramide. FIG. 4 depicts cell viability (as a percentage of control) after treatment for 72 hours with varying concentrations of C6-Ceramide-Rubusoside. FIG. 5 depicts cell viability (as a percentage of control) after treatment for 72 hours with varying concentrations of Rubusoside.

[6] = WHO intake limits (ADI, NOEL); details: converted from the steviol ADI
Method: (§1) Rubusoside (RUB) is a steviol glycoside. Steviol glycosides, extracted from the leaves of various plants, are often used as natural food sweeteners. […] Rubusoside is generally recognized as safe (GRAS) as a food additive for the general public according to the World Health Organization (WHO) (2005). A WHO expert panel has set 760 mg/kg/day RUB as the no-observed-effect level (NOEL) (2005). Thus there is ample tolerance for avoiding toxicity when rubusoside is employed in the present invention.

[7] = set by WHO expert panel (2005); cited from earlier work
[8] = Preliminary oral toxicity study in normal mice; assay type: in vivo; details: up to 4 g daily per kg body mass, orally, two weeks
Method: as §1

[9] = system: HTZ SW48/TP53+/− and parental SW48 (wt p53) cells; assay: Sensitivity of SW48 cells to Cers; assay type: cell-based, human; details: both cell lines, data not shown

With `CCCCCCCCCCCCC/C=C/[C@@H](O)[C@H](CO)NC(=O)CCCCC` [C6-Cer, C6-Ceramide] the PP1 activity ([1]; MBO-asGCS 100 nM or C6-Cer 2.5 μM, 72 hr) was “significantly increased”, the IC50 [2] was 0.9 µM and the “protein level of Bax in the small intestine” value [3] was “significantly increased”. For the same molecule, the “protein level of p53 in the small intestine” value [3] was “significantly increased”, the “restoration of p53 activity” value ([4]; exogenous, Liu et al., 2011) was “restored p53 activity” and the IC50 ([5]; OVCAR3 cells, 72 hours) was 12.5 µM. The “resistance of OVCAR3 relative to A2780 cells” value ([5]; ratio of IC50 values) was 12 times.
For `C=C1C[C@@]23CC[C@H]4[C@@](C)(CCC[C@@]4(C)C(=O)O[C@@H]4O[C@H](CO)[C@@H](O)[C@H](O)[C@H]4O)[C@@H]2CC[C@]1(O[C@@H]1O[C@H](CO)[C@@H](O)[C@H](O)[C@H]1O)C3` [Rubusoside, rubusoside], the cytotoxicity ([2]; any concentration tested up to 15 μM) was “no cytotoxicity”, the cytotoxicity ([5]; OVCAR-3 cells, any concentration tested up to 15 μM, 72 hours) was “no cytotoxicity” and the “Accepted Daily Intake (ADI), roughly comparable amount” value [6] was 8 to 12 mg/kg/day. For the same molecule, the “no-observed-effect level (NOEL)” value [7] was 760 mg/kg/day and the “clinical signs of toxicity” value [8] was “did not cause any clinical signs of toxicity”.
With `COC[C@@H]([C@H](O)[C@H](O)C(=O)NCC[C@H](C)c1nc(/C=C/C[C@@H]2O[C@]3(C[C@@H](O)[C@@H]2C)O[C@H]([C@H](C[C@H](O)[C@H](C)[C@H](O)[C@H](C)/C=C(C)/C(C)=C/C=C/C(C)=C\C#N)OC)[C@H](OP(=O)(O)O)C3(C)C)co1)N(C)C` [calyculin A] the “effect on PP1 activation by MBO-asGCS and C6-Cer” value [1] was “abolished these effects”.
For `CCCCCCCCCCCCC/C=C/[C@@H](O)[C@H](CO)NC(=O)CCCCCCCCCCCCCCCCC` [C18-Cer], the “relative sensitivity of cells to Cers” value [9] was “more sensitive to C18-Cer than C6-Cer”.
For `CCCC[C@@H](C)[C@@H](OC(=O)C[C@@H](CC(=O)O)C(=O)O)[C@H](C[C@@H](C)C[C@H](O)CCCC[C@@H](O)C[C@H](O)[C@H](C)N)OC(=O)C[C@@H](CC(=O)O)C(=O)O` [Fumonisin B1], the “effect on p53 restoration by MBO-asGCS” value ([4]; inhibitor of Cer synthase) is listed as “inhibited p53 restoration”.
